Assay results: patent publication US20080021056A1, “Fused, Tricyclic Sulfonamide Inhibitors of Gamma Secretase” (priority 2006, published 2008)
“And” between values parts separate entries of the source, which are not always exact repeats. Identical values can stand only once.

Target: T1, gamma-secretase (Homo sapiens, UniProt P49768)
T1 construct: partially purified extract of IMR-32 cell membranes as the gamma-secretase enzyme preparation; endogenous in cells; host or cells: IMR-32 cell membranes (partially purified extract)
Test: Gamma-secretase APP enzyme assay
Assay type: biochemical
Settings: cleavage of MBP-C125 Swe substrate at the Aβ40 site; partially purified extract of IMR-32 cell membranes; ELISA
From the text: The gamma-secretase APP enzyme assay was designed to measure the specific proteolytic cleavage of an APP substrate (MBP-C125 Swe fusion protein) at the Aβ40 site. The assay used a partially purified extract of IMR-32 cell membranes as the gamma-secretase enzyme preparation and a recombinant fusion protein containing the C-terminal 125 amino acids of the Swedish variant of the APP (MBP-C125swe) as the substrate. This assay involved two steps beginning with the enzymatic reaction generating a cleavage product that was captured with an immobilized antibody specific for the neo-epitope Aβ40 site. The captured cleavage product was then detected in a sandwich ELISA assay with a biotinylated reporter antibody that is specific to Aβ (17-28). Streptavidin-linked alkaline phosphatase was then added that would generate a fluorescent signal proportional to the amount of cleavage product. This assay was used to discover small molecule inhibitors of gamma-secretase.
Briefly, a 149 mg/ml solution of BIGCHAP detergent was made with water at 42° C. and then rotated for 30 minutes at the same temperatures This warmed solution of BigCHAPS (N,N-Bis(3-D-gluconamidopropyl)cholamide) detergent was used to dissolve Brain Extract Type-V (lipid containing a minimum of 40% phosphatidylethanolamine) from Signa (St. Louis, Mo.) to a concentration of 8 mg/ml. This solution containing BigCHAPS and lipid at 8 mg/ml is then diluted to 0.53 mg/ml lipid with a pre-warmed solution of Hepes and sodium chloride. This final solution containing Hepes buffer, sodium chloride, BigCHAPS detergent and lipid is used to create working solutions of both gamma-secretase (25 Units) and the MBP-C125 substrate (0.05 mg/ml).
Gamma-secretase was then added to a 96-well micro-titre plate and then incubated with various concentrations of inhibitor for 30 minutes at 37° C. MBPC125 substrate was then added to initiate the reaction that would run for two hours at 37° C. The reaction was quenched with the addition of SDS to a final concentration of 0.1% and then 100 μl of the reaction mixture was transferred to a capture ELISA plate and incubated overnight at 4° C. Detection of the cleavage product was performed using a standard sandwich ELISA assay and quantified using a six point standard curve.

IC50	SMILES
0.1 to 100 nM	CC1c2cn[nH]c2-c2cc(F)c(F)cc2N1S(=O)(=O)c1ccc(Cl)s1 (centres unmarked) [5-(5-chlorothiophen-2-ylsulfonyl)-7,8-difluoro-4-methyl-4,5-dihydro-1H-pyrazolo[4,3-c]quinoline]
101 to 500 nM	O=c1c2cn[nH]c2c2ccccc2n1S(=O)(=O)c1ccc(Cl)cc1 [5-[(4-chlorophenyl)sulfonyl]-1,5-dihydro-4H-pyrazolo[4,3-c]quinolin-4-one]
1000 to 10000 nM	Cc1n[nH]c2c1CN(S(=O)(=O)c1ccc(Cl)cc1)c1ccccc1-2 [5-[(4-chlorophenyl)sulfonyl]-3-methyl-4,5-dihydro-1H-pyrazolo[4,3-c]quinoline]
0.1 to 100 nM	O=S(=O)(c1ccc(Cl)cc1)N1Cc2c[nH]nc2-c2ccccc21 [5-[(4-chlorophenyl)sulfonyl]-4,5-dihydro-1H-pyrazolo[4,3-c]quinoline]
1000 to 10000 nM	O=S(=O)(c1ccc(Cl)cc1)N1Cc2c(O)n[nH]c2-c2ccccc21 [5-[(4-chlorophenyl)sulfonyl]-4,5-dihydro-1H-pyrazolo{4,3-c]quinolin-3-ol]
0.1 to 100 nM	CC1c2cn[nH]c2-c2ncccc2N1S(=O)(=O)c1ccc(Cl)cc1 (centres unmarked) [5-[(4-chlorophenyl)sulfonyl]-4-methyl-4,5-dihydro-1H-pyrazolo[4,3-c]-1,5-naphthyridine]
0.1 to 100 nM	O=S(=O)(c1ccc(Cl)cc1)N1Cc2c[nH]nc2-c2ccc(F)cc21 [5-[(4-chlorophenyl)sulfonyl]-7-fluoro-4,5-dihydro-2H-pyrazolo[4,3-c]quinoline]
0.1 to 100 nM	COc1ccc2c(c1)N(S(=O)(=O)c1ccc(Cl)cc1)C(C)c1c[nH]nc1-2 (centres unmarked) [5-[(4-chlorophenyl)sulfonyl]-7-methoxy-4-methyl-4,5-dihydro-1H-pyrazolo[4,3-c]quinoline]
0.1 to 100 nM	O=S(=O)(c1ccc(Cl)cc1)N1Cc2c[nH]nc2-c2cc(F)ccc21 [5-[(4-chlorophenyl)sulfonyl]-8-fluoro-4,5-dihydro-2H-pyrazolo[4,3-c]quinoline]
1000 to 10000 nM	COc1cccc2c1-c1[nH]ncc1C(C)N2S(=O)(=O)c1ccc(Cl)cc1 (centres unmarked) [5-[(4-chlorophenyl)sulfonyl]-9-methoxy-4-methyl-4,5-dihydro-1H-pyrazolo[4,3-c]quinoline]
0.1 to 100 nM	O=S(=O)(c1ccc(Cl)cc1)N1Cc2c[nH]nc2-c2c(F)cccc21 [5-[(4-chlorophenyl}sulfonyl]-9-fluoro-4,5-dihydro-2H-pyrazolo[4,3-c]quinoline]
0.1 to 100 nM	O=S(=O)(c1ncc(Cl)s1)N1c2cc(F)c(F)cc2-c2n[nH]cc2C1C1CC1 (centres unmarked) [5-chloro-2-(4-cyclopropyl-7,8-difluoro-1H-pyrazolo[4,3-c]quinolin-5(4H)-ylsulfonyl)thiazole]
0.1 to 100 nM	O=S(=O)(c1ccc(C(F)(F)F)cc1)N1c2ccccc2-c2[nH]ncc2C12CC2 [5′-(4-(trifluoromethyl)phenylsulfonyl)-1′,5′-dihydrospiro[cyclopropane-1,4′-pyrazolo[4,3-c]quinoline]]
0.1 to 100 nM	O=S(=O)(c1ccc(Cl)cc1)N1c2ccccc2-c2n[nH]cc2C12CC2 [5′-(4-chlorophenylsulfonyl)-2′,5′-dihydrospiro[cyclopropane-1,4′-pyrazolo[4,3-c]quinoline]]
101 to 500 nM	CCC1N(S(=O)(=O)c2ccc(Cl)cc2)c2ccccc2-c2ccnn21 (centres unmarked) [6-(4-chlorophenylsulfonyl)-5-ethyl-5,6-dihydropyrazolo[1,5-c]quinazoline]
0.1 to 100 nM	O=S(=O)(c1ccc(C(F)(F)F)cc1)N1c2cc(F)c(F)cc2-c2[nH]ncc2C1c1cccnc1 (centres unmarked) [7,8-difluoro-4-(pyridin-3-yl)-5-(4-(trifluoromethyl)phenylsulfonyl)-4,5-dihydro-1H-pyrazolo[4,3-c]quinoline]
0.1 to 100 nM	CC(C)C1c2c[nH]nc2-c2cc(F)c(F)cc2N1S(=O)(=O)c1ccc(C(F)(F)F)cc1 (centres unmarked) [7,8-difluoro-4-isopropyl-5-(4-(trifluoromethyl)phenylsulfonyl)-4,5-dihydro-2H-pyrazolo[4,3-c]quinoline]
0.1 to 100 nM	CC1c2c[nH]nc2-c2cc(F)c(F)cc2N1S(=O)(=O)c1cccs1 (centres unmarked) [7,8-difluoro-4-methyl-5-(thiophen-2-ylsulfonyl)-4,5-dihydro-2H-pyrazolo[4,3-c]quinoline]

IC50	SMILES
0.1 to 100 nM	O=S(=O)(c1ccc(C(F)(F)F)cc1)N1Cc2c[nH]nc2-c2cc(F)c(F)cc21 [7,8-difluoro-5-(4-(trifluoromethyl)phenylsulfonyl)-4,5-dihydro-2H-pyrazolo[4,3-c]quinoline]
0.1 to 100 nM	CC1c2c[nH]nc2-c2cc(Cl)sc2N1S(=O)(=O)c1ccc(C(F)(F)F)cc1 (centres unmarked) [7-chloro-4-methyl-5-(4-(trifluoromethyl)phenylsulfonyl)-4,5-dihydro-1H-pyrazolo[3,4-d]thieno[2,3-b]pyridine]
501 to 1000 nM	O=S(=O)(c1ccc(Cl)cc1)N1Cc2c[nH]nc2-c2cc(Cl)ccc21 [8-chloro-5-[(4-chlorophenyl)sulfonyl]-4,5-dihydro-2H-pyrazolo[4,3-c]quinoline]
1000 to 10000 nM	CC1c2c[nH]nc2-c2cc(F)ccc2N1S(=O)(=O)c1cn(C)cn1 (centres unmarked) [8-fluoro-4-methyl-5-(1-methyl-1H-imidazol-4-ylsulfonyl)-4,5-dihydro-1H-pyrazolo[4,3-c]quinoline]
101 to 500 nM	CC1c2c[nH]nc2-c2cc(F)ccc2N1S(=O)(=O)c1cnn(C)c1 (centres unmarked) [8-fluoro-4-methyl-5-(1-methyl-1H-pyrazol-4-ylsulfonyl)-4,5-dihydro-1H-pyrazolo[4,3-c]quinoline]
1000 to 10000 nM	CC1c2cn[nH]c2-c2cc(F)ccc2N1S(=O)(=O)c1ccc(-c2ccccn2)s1 (centres unmarked) [8-fluoro-4-methyl-5-(5-(pyridin-2-yl)thiophen-2-ylsulfonyl)-4,5-dihydro-1H-pyrazolo[4,3-c]quinoline]
101 to 500 nM and 0.1 to 100 nM	CC1c2cn[nH]c2-c2cc(F)ccc2N1S(=O)(=O)c1ccccn1 (centres unmarked) [8-fluoro-4-methyl-5-(pyridin-2-ylsulfonyl)-4,5-dihydro-1H-pyrazolo[4,3-c]quinoline]
0.1 to 100 nM	CC1c2cn[nH]c2-c2cc(F)ccc2N1S(=O)(=O)c1ccc(F)cc1 (centres unmarked) [8-fluoro-5-(4-fluorophenylsulfonyl)-4-methyl-4,5-dihydro-1H-pyrazolo[4,3-c]quinoline]
0.1 to 100 nM	Nc1ccc(S(=O)(=O)N2c3cc(F)c(F)cc3-c3[nH]ncc3[C@H]2C2CC2)cc1 [(R)-4-(4-cyclopropyl-7,8-difluoro-1H-pyrazolo[4,3-c]quinolin-5(4H)-ylsulfonyl)aniline]
0.1 to 100 nM	O=S(=O)(c1ccc(OC(F)F)cc1)N1c2cc(F)c(F)cc2-c2[nH]ncc2[C@H]1C1CC1 [(R)-4-cyclopropyl-5-(4-(difluoromethoxy)phenylsulfonyl)-7,8-difluoro-4,5-dihydro-1H-pyrazolo[4,3-c]quinoline]
0.1 to 100 nM	O=[N+]([O-])c1ccc(S(=O)(=O)N2c3cc(F)c(F)cc3-c3[nH]ncc3[C@H]2C2CC2)cc1 [(R)-4-cyclopropyl-7,8-difluoro-5-(4-nitrophenylsulfonyl)-4,5-dihydro-1H-pyrazolo[4,3-c]quinoline]
0.1 to 100 nM	O=S(=O)(c1ccc(OC(F)(F)F)cc1)N1c2cc(OC(F)(F)F)ccc2-c2n[nH]cc2[C@H]1C1CC1 [(R)-4-cyclopropyl-7-(trifluoromethoxy)-5-(4-(trifluoromethoxy)phenylsulfonyl)-4,5-dihydro-2H-pyrazolo[4,3-c]quinoline]
0.1 to 100 nM	O=S(=O)(c1ccc(C(F)(F)F)nc1)N1c2cc(OC(F)(F)F)ccc2-c2n[nH]cc2[C@H]1C1CC1 [(R)-4-cyclopropyl-7-(trifluoromethoxy)-5-(6-(trifluoromethyl)pyridin-3-ylsulfonyl)-4,5-dihydro-2H-pyrazolo[4,3-c]quinoline]
0.1 to 100 nM	O=S(=O)(c1ccc(C(F)(F)F)nc1)N1c2cc(C(F)(F)F)ccc2-c2[nH]ncc2[C@H]1C1CC1 [(R)-4-cyclopropyl-7-(trifluoromethyl)-5-(6-(trifluoromethyl)pyridin-3-ylsulfonyl-4,5-dihydro-1H-pyrazolo[4,3-c]quinoline]
0.1 to 100 nM	O=S(=O)(c1ccc(C(F)(F)F)nc1)N1c2ccc(C(F)(F)F)cc2-c2[nH]ncc2[C@H]1C1CC1 [(R)-4-cyclopropyl-8-(trifluoromethyl)-5-(6-(trifluoromethyl)pyridin-3-ylsulfonyl)-4,5-dihydro-1H-pyrazolo[4,3-c]quinoline]
0.1 to 100 nM	O=S(=O)(c1ccc(OC(F)(F)F)cc1)N1c2ccc(F)cc2-c2[nH]ncc2[C@H]1C1CC1 [(R)-4-cyclopropyl-8-fluoro-5-(4-(trifluoromethoxy)phenylsulfonyl)-4,5-dihydro-1H-pyrazolo[4,3-c]quinoline]
0.1 to 100 nM	COc1ccc(S(=O)(=O)N2c3ccc(F)cc3-c3[nH]ncc3[C@H]2C2CC2)cc1 [(R)-4-cyclopropyl-8-fluoro-5-(4-methoxyphenylsulfonyl)-4,5-dihydro-1H-pyrazolo[4,3-c]quinoline]
